According to patent publication US8394793B2, “Therapeutic agent for inflammatory bowel disease” (Nippon Shinyaku Co., Ltd., priority 2008, dated 2013):

System: colitis resulted by administration of an aqueous solution of dextran sulfate in rats
Experiment: Dextran sulfate-induced colitis in rats (Test Example 1)
Format: in vivo, rat
Settings: F 334 rats, 3% dextran sulfate in drinking water for 5 days, 5 mg/kg orally twice daily
Experimental: Rats (males; eight weeks age) of an F 334 strain (Japan SLC) were allowed free access to a 3% aqueous solution of dextran sulfate for five days and, after that, they were allowed free access to tap water for one day. The test substance was orally administered twice daily at the start of drinking of a 3% aqueous solution of dextran sulfate. After six days from the initiation of the administration, the large intestine was excised and its length was measured. With regard to the symptom score, (1) stool consistency, (2) fecal blood and (3) degree of body weight reduction from the previous day were evaluated in five stages as shown in the following Table 1 and a mean value thereof was calculated. As to the test substance, the compound A (5 mg/kg) was used. The test substance was administered by suspending in a 0.5% aqueous solution of methyl cellulose. A 0.5% aqueous solution of methyl cellulose was administered to the control group. Ten rats per group were used. [table] With regard to shortening of the large intestine, significant difference from the control group was tested by a t-test (*: p<0.05). With regard to the symptom score of colitis, significant difference from the control group was tested by a t-test (##: p<0.01).

SMILES: CC(C)N(CCCCOCC(=O)NS(C)(=O)=O)c1cnc(-c2ccccc2)c(-c2ccccc2)n1 [compound A, 2-{4-[N-(5,6-diphenylpyrazin-2-yl)-N-isopropylamino]butyl-oxy}-N-(methylsulfonyl)acetamide]
- shortening of large intestine (length of the large intestine) (large intestine excised after six days, t-test vs control p<0.05, FIG. 1): significantly suppressed
- symptom score of colitis (stool consistency, fecal blood, body weight reduction) (t-test vs control p<0.01, FIG. 2): significantly suppressed
